Activity calls are given as the source filed them. The calls are words filed in the database; no cut-off is given here.
Columns and labels:
[1] = mouse, serum, 24 h, 200 µM
Cricetulus griseus = species: Cricetulus griseus; test: Modulation of Frizzled in CHOK1 cells assessed as protection against 5 ng/ml TcdB-induced cell rounding at 50 uM incubated for 24 hrs by phalloidin conjugated AlexaFluor488 dye based fluorescence microscopy relative to control
[2] = 40 min, 20 µM
Homo sapiens [3] = species: Homo sapiens; test: Modulation of Frizzled in human Caco2 cells assessed as protection against 0.25 to 0.5 ng/ml TcdB-induced cell rounding at 50 uM incubated for 24 hrs by phalloidin conjugated AlexaFluor488 dye based fluorescence microscopy relative to control
[4] = Stability in cell culture medium containing 10% fetal bovine serum at 200 uM at 37 degC measured over 24 hrs by LC-MS analysis; type: ADME, cell-free, Bos taurus; conditions: cattle
[5] = 40 min, 20 µM; remark: listed apart in the source
[6] = Binding affinity to recombinant human/mouse Frizzled-2 (Gln29 to Leu168 residues)/human IgG1 chimeric protein expressed in mouse NS0 cells assessed as reduction in interaction of TcdB with FZD7 incubated for 1 hr by competition ELISA; type: cell-based
Homo sapiens [7] = species: Homo sapiens; test: Modulation of Frizzled in human Caco2 cells assessed as protection against TcdB-induced cell rounding incubated for 24 hrs by phalloidin conjugated AlexaFluor488 dye based fluorescence microscopy
Homo sapiens [8] = species: Homo sapiens; test: Modulation of Frizzled in human Caco2 cells assessed as protection against 0.1 to 1 ng/ml TcdB-induced cell rounding incubated for 24 hrs by phalloidin conjugated AlexaFluor488 dye based fluorescence microscopy relative to control
Frizzled-7 [9] = target: T1, Frizzled-7 (Homo sapiens, UniProt O75084); type: cell-based; conditions: cho
[10] = Stability in presence of TCEP assessed as disulfide reduction at 20 uM measured over 40 mins at 37 degC by LC-MS analysis; type: physicochemical
Frizzled-7 [11] = target: T1, Frizzled-7; test: Inhibition of Frizzled-7 in HEK293 cells expressing Wnt assessed as reduction in Wnt signaling by firefly luciferase reporter gene assay; type: cell-based
Frizzled-7 [12] = target: T1, Frizzled-7; test: biochemical; type: cell-based, CHO; conditions: read-out: Kd
Homo sapiens [13] = species: Homo sapiens; test: Modulation of Frizzled in human Caco2 cells assessed as protection against 4 ng/ml TcdB-induced cell rounding at 50 uM incubated for 24 hrs by phalloidin conjugated AlexaFluor488 dye based fluorescence microscopy relative to control
Frizzled-7 [14] = target: T1, Frizzled-7; test: Binding affinity to recombinant human Frizzled-7 (Gln33 to Leu185 residues)/human IgG1 chimeric protein expressed in CHO cells assessed as reduction in interaction of TcdB with FZD7 incubated for 1 hr by competition ELISA; type: cell-based
Frizzled-7 [15] = target: T1, Frizzled-7; conditions: CHO
Description: Binding affinity to recombinant human Frizzled-7 (Gln33 to Leu185 residues)/human IgG1 chimeric protein expressed in CHO cells assessed as association rate constant by SPR assay

## CC[C@H](C)[C@H](NC(=O)[C@H](Cc1cnc[nH]1)NC(=O)[C@H](CSSC[C@H](NC(=O)[C@H](Cc1c[nH]c2ccccc12)NC(=O)[C@H](CC(C)C)NC(=O)[C@H](CCC(=O)O)NC(=O)[C@H](CC(C)C)NC(=O)[C@H](CC(=O)O)NC(=O)[C@H](CC(=O)O)NC(=O)[C@@H](NC(C)=O)[C@H](C)O)C(=O)N[C@@H](Cc1cnc[nH]1)C(=O)N[C@H](C(=O)N[C@@H](CCSC)C(=O)N[C@@H](Cc1ccc(O)cc1)C(N)=O)[C@@H](C)CC)NC(=O)[C@H](Cc1c[nH]c2ccccc12)NC(=O)[C@H](CC(C)C)NC(=O)[C@H](CCC(=O)O)NC(=O)[C@H](CC(C)C)NC(=O)[C@H](CC(=O)O)NC(=O)[C@H](CC(=O)O)NC(=O)[C@@H](NC(C)=O)[C@H](C)O)C(=O)N[C@@H](CCSC)C(=O)N[C@@H](Cc1ccc(O)cc1)C(N)=O
[1]
  Stability: Stable
Cricetulus griseus
  Activity: Active
[2]
  Stability: Unstable
Homo sapiens [3]
  Activity: Active
[4]
  Stability: Stable
[5]
  Stability: Unstable
[6]
  inhibition: Dose-dependent effect
Homo sapiens [7]
  inhibition: Dose-dependent effect
Homo sapiens [8]
  Activity: 34 to 69%
Frizzled-7 [9]
  Kd: 0.64 ×10⁻³ /s
[10]
  Stability: Unstable
Frizzled-7 [11]
  IC50: 9.2 nM
Frizzled-7 [12]
  Kd: 0.039 nM
Homo sapiens [13]
  Activity: inactive
Frizzled-7 [14]
  inhibition: Dose-dependent effect
Frizzled-7 [15]
  Ka: 166 ×10⁵ /M/s
